Values joined by “and” are separate entries in the source; they are usually repeats but may differ in a detail not shown here. Identical values can stand only once. Like-named read-outs stand apart in the source and are kept apart here.

For one data set, the target named is CYP3A4 (Homo sapiens, UniProt P08684). The note with it: human liver microsomes. A general note: Liver microsomes are a subcellular fraction often used to study metabolism.
The target of a further data set is ABL1 (Homo sapiens, UniProt P00519). The note with it: 1 μM; Run 1, Run 2.
ABL1, sequence (P00519 whole entry): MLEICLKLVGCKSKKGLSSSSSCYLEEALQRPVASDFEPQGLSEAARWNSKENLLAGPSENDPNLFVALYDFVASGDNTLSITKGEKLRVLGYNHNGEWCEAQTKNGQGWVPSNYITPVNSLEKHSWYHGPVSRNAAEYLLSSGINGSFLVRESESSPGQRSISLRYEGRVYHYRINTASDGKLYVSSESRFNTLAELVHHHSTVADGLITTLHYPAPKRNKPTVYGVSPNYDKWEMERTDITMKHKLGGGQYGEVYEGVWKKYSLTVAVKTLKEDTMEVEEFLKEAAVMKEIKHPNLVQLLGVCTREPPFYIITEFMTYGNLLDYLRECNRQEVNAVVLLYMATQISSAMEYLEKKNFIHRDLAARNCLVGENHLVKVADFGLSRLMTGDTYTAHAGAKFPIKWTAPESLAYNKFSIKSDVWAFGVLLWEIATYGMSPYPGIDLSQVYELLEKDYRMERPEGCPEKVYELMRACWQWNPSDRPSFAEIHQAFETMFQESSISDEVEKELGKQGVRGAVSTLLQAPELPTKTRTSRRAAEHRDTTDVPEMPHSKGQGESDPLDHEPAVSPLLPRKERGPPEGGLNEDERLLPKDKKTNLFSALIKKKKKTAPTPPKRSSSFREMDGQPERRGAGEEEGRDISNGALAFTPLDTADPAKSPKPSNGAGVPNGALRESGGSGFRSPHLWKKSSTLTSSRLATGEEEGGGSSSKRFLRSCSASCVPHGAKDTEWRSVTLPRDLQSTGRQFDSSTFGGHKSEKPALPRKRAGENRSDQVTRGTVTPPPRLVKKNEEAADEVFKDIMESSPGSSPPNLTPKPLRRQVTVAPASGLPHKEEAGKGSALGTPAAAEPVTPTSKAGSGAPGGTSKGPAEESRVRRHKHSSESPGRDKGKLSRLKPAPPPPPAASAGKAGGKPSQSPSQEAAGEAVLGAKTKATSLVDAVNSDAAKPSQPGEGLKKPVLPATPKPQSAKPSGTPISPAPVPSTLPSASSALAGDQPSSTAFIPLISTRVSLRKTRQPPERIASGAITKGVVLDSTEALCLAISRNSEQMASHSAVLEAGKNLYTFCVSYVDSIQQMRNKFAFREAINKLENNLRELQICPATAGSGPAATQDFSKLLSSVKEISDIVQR
A further data set has as its target CDK6/cyclin D3 (Homo sapiens, UniProt Q00534). The note with it: 1 μM; Run 1, Run 2.
The target in another data set is CHK2 (Homo sapiens, UniProt O96017). The settings on record: 1 μM; Run 1, Run 2.
A further data set addresses T1, DYRK4 (Homo sapiens, UniProt Q9NR20).
T1 sequence (Q9NR20 1-520): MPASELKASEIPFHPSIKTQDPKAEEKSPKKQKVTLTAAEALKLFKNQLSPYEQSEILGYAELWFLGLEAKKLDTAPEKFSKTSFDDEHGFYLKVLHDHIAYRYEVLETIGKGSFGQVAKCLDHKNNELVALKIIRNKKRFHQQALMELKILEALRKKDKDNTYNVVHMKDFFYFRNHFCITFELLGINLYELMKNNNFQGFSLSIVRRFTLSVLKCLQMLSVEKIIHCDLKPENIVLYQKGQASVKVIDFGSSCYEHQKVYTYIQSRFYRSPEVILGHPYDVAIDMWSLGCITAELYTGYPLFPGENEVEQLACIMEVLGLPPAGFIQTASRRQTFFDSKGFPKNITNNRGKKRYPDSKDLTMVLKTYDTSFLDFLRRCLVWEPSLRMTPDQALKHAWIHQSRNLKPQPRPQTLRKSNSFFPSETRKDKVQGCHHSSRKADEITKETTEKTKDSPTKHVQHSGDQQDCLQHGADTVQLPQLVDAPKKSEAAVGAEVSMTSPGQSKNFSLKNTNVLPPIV
The note with it: 1 μM; Run 1, Run 2.

Another data set addresses ERBB4/HER4 (Homo sapiens, UniProt Q15303). The settings on record: 1 μM; Run 1, Run 2.
The next data set addresses JNK1 (Homo sapiens, UniProt P45983). The settings on record: 1 μM; Run 1, Run 2.
A further data set deals with STK32C/YANK3 (Homo sapiens, UniProt Q86UX6). The note with it: 1 μM; Run 1, Run 2.
The target of the next data set is CDK1/cyclin B (Homo sapiens, UniProt P06493). The data set is described as follows: biochemical. The note with it: read-out: % enzyme activity, 1 μM; Run 1, Run 2.
CDK1/cyclin B, sequence (P06493 whole entry): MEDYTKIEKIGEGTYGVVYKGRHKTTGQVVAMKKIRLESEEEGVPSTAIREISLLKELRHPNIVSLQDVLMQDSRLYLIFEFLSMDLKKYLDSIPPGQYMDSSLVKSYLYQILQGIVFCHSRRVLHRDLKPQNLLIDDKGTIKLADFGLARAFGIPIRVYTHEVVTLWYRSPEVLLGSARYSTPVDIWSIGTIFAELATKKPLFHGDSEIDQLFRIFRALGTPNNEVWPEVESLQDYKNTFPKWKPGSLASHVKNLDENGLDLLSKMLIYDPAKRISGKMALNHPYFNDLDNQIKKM
CDK1/cyclin B, sequence (P14635 whole entry partner): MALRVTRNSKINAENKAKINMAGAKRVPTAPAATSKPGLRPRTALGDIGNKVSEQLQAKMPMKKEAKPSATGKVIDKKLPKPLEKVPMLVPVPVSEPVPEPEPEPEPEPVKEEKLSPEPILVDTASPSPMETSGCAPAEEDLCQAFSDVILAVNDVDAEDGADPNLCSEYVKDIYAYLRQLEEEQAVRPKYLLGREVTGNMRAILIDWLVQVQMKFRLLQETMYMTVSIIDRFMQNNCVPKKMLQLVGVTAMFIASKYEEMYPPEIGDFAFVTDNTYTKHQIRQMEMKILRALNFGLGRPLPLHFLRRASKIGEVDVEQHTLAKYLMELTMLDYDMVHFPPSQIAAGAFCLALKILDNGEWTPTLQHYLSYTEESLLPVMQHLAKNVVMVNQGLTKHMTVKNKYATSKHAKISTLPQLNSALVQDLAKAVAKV
For a further data set, the target named is CDK2/Cyclin A1 (Homo sapiens, UniProt P24941). The data set is described as follows: biochemical. The settings on record: read-out: % enzyme activity, 1 μM; Run 1, Run 2.
Another data set addresses EPHA4 (Homo sapiens, UniProt P54764). As to the kind of experiment: biochemical. The settings on record: read-out: % enzyme activity, 1 μM; Run 1, Run 2.
Another data set deals with FGR (Homo sapiens, UniProt P09769). The data set is described as follows: biochemical. The note with it: read-out: % enzyme activity, 1 μM; Run 1, Run 2.
FGR, sequence (P09769 whole entry): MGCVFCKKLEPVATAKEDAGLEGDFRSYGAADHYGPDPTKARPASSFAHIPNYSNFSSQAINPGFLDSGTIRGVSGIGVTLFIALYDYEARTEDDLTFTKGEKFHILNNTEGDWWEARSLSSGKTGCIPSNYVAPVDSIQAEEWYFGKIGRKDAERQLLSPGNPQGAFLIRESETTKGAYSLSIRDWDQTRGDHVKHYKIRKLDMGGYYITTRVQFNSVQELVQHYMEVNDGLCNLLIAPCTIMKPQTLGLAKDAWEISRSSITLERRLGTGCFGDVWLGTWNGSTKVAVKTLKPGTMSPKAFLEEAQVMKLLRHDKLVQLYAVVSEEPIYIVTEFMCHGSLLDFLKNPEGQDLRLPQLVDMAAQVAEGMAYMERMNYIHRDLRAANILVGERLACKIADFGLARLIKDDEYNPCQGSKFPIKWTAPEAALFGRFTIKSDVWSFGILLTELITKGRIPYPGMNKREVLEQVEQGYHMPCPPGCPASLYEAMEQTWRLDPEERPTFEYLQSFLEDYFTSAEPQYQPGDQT
The target in the next data set is T2, IKKb/IKBKB (Homo sapiens, UniProt O14920).
T2 sequence (O14920 1-756): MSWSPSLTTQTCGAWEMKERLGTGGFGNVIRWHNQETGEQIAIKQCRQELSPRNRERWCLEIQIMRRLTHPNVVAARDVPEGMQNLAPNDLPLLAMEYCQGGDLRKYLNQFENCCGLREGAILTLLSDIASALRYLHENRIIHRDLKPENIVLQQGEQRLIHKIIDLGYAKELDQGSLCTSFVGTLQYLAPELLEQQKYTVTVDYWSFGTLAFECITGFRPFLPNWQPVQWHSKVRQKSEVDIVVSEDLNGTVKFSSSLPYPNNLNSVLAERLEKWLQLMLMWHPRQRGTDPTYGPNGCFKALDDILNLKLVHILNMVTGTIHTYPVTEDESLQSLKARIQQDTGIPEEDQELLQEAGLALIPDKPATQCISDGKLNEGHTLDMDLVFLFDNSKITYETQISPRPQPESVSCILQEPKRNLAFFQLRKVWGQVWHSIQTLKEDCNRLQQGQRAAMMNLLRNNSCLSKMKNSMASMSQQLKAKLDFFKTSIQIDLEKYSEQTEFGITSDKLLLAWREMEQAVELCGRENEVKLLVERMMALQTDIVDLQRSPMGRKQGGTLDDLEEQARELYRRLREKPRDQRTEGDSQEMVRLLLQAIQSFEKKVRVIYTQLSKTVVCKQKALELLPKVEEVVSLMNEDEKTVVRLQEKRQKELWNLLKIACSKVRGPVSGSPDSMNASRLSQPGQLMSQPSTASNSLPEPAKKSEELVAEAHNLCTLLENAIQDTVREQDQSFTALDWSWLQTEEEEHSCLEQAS
As to the kind of experiment: biochemical. The note with it: read-out: % enzyme activity, 1 μM; Run 1, Run 2.

The target in the next data set is MSK2/RPS6KA4 (Homo sapiens, UniProt O75676). As to the kind of experiment: biochemical. The settings on record: read-out: % enzyme activity, 1 μM; Run 1, Run 2.
MSK2/RPS6KA4, sequence (O75676 whole entry): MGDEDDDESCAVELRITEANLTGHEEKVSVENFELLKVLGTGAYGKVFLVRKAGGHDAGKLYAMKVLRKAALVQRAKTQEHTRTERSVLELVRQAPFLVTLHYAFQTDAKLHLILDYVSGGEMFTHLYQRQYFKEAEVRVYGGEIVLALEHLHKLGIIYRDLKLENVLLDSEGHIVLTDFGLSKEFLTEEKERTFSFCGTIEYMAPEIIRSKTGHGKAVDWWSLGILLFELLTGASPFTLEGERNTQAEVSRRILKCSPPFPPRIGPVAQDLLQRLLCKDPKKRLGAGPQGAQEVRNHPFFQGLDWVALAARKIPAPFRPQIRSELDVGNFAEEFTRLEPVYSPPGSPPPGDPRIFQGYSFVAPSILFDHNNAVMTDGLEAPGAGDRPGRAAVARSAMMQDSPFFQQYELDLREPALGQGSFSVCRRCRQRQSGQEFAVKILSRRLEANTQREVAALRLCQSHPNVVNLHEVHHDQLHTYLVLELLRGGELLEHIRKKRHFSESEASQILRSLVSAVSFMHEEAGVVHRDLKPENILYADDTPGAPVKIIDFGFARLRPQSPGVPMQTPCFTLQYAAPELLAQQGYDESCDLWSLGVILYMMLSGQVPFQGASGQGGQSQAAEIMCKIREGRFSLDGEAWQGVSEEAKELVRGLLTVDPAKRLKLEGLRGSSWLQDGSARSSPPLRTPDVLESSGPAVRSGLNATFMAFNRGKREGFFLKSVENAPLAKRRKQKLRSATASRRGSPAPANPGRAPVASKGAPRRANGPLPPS
The target of the next data set is T3, MYLK4 (Homo sapiens, UniProt Q86YV6).
T3 sequence (Q86YV6 1-388): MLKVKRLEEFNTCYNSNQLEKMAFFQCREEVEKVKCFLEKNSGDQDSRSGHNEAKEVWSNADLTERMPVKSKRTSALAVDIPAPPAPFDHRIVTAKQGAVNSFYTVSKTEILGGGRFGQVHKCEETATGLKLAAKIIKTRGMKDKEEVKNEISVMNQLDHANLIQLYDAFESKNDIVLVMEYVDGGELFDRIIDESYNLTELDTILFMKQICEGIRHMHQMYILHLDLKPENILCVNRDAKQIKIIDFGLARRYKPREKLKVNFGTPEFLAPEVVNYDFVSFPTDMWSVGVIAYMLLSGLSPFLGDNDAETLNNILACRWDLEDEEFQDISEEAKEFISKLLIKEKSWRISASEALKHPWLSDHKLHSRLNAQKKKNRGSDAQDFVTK
The data set is described as follows: biochemical. The settings on record: read-out: % enzyme activity, 1 μM; Run 1, Run 2.

In a further data set the target is TESK1 (Homo sapiens, UniProt Q15569). As to the kind of experiment: biochemical. The note with it: read-out: % enzyme activity, 1 μM; Run 1, Run 2.
Setting [1] is: read-out: CYP3A4-Midazolam IC50, substrate midazolam.
The mark [2] stands for this setting: read-out: CYP3A4-Testosterone IC50, substrate testosterone.

CYP3A4, sequence (P08684 whole entry): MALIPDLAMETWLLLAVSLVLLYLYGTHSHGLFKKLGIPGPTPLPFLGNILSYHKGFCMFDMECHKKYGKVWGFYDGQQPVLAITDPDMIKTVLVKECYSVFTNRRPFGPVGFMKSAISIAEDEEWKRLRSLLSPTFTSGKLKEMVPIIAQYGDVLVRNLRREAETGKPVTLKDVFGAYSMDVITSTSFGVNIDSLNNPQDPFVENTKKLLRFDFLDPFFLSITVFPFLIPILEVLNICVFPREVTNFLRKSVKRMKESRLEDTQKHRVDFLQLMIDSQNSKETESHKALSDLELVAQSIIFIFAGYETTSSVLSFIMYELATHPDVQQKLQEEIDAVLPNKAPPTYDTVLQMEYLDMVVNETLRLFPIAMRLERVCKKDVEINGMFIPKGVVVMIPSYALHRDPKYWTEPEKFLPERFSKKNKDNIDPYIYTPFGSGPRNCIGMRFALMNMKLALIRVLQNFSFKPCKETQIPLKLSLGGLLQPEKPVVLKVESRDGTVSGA
CDK6/cyclin D3, sequence (Q00534 whole entry): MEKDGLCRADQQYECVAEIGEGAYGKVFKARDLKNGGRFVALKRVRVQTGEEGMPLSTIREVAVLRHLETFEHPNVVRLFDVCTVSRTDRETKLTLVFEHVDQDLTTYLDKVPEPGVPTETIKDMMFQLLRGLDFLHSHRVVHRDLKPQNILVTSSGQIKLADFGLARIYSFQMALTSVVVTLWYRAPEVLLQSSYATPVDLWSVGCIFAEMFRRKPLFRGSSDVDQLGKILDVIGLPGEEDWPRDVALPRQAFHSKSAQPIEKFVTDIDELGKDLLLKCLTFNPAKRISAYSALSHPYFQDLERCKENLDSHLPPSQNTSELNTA
CDK6/cyclin D3, sequence (P30281 whole entry partner): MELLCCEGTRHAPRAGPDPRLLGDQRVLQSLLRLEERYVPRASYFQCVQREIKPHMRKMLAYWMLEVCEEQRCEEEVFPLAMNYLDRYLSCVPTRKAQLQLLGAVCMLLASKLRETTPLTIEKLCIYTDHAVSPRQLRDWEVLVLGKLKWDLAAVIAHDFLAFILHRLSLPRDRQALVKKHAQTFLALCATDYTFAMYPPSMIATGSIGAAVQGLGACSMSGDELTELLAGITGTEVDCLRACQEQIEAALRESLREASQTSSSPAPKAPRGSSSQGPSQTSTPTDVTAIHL
JNK1, sequence (P45983 whole entry): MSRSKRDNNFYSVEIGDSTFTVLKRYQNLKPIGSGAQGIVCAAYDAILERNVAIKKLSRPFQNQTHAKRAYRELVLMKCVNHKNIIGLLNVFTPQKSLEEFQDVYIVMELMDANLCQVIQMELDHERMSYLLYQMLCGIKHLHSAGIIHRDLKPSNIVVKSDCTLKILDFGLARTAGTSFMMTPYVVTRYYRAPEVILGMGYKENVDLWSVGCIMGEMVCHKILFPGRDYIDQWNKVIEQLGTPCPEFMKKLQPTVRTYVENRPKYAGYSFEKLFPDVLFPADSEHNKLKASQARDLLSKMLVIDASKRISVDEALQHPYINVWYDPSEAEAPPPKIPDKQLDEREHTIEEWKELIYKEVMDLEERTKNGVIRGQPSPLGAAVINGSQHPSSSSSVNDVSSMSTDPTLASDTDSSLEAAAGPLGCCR

Broadly, the IC50 is the midpoint of a concentration-inhibition curve. Turning to `COc1cc(-c2cncc(-c3ccc(N4CCN(C)CC4)cc3)c2C)cc(F)c1C(N)=O` [Compound 26a, 2-Fluoro-6-methoxy-4-(4-methyl-5-(4-(4-methylpiperazin-1-yl)phenyl)pyridin-3-yl)benzamide], in the data set with KHS/MAP4K5, the % enzyme activity at 1 μM was 39.7% and 39.3%. The IC50 on CYP3A4 (setting [1]) and at CYP3A4 (setting [2]) was above 50 µM throughout. Also, the “% enzyme activity” value on ABL1 stood at 75.12%; at CDK6/cyclin D3, 86.25%; on CHK2, 99.41%; on DYRK4, 102.49%; on ERBB4/HER4, 99.40%; at JNK1 it was 88.65%. In addition, at STK32C/YANK3, the “% enzyme activity” value is 85.01%. The remaining activity at 1 µM worked out at 95.7% at CDK1/cyclin B; 99.9% on CDK2/Cyclin A1; 95.3% at EPHA4; 83.1% on FGR; 104% at IKKb/IKBKB; 97.1% at MSK2/RPS6KA4. Also, the remaining activity at 1 µM on MYLK4 was 97.7%; at TESK1, 114%.
For the compound `COc1cc(-c2cncc(-c3ccc(N4C[C@@H](C)N(C)[C@@H](C)C4)cc3)c2C)cc(F)c1C(N)=O` [Compound 26c, 2-Fluoro-6-methoxy-4-(4-methyl-5-(4-((3R,5S)-3,4,5-trimethylpiperazin-1-yl)phenyl)pyridin-3-yl)benzamide], the % enzyme activity at 1 μM in the data set on KHS/MAP4K5 was 41.7% and 40.6%. Besides, the IC50 on CYP3A4 (setting [1]) and on CYP3A4 (setting [2]) was above 50 µM in each case. Further, the “% enzyme activity” value came to 82.07% at ABL1; 102.19% on CDK6/cyclin D3; 101.19% on CHK2; 100.24% on DYRK4; 93.88% on ERBB4/HER4; 85.74% at JNK1. Besides, the “% enzyme activity” value on STK32C/YANK3 was found to be 91.96%. In addition, the remaining activity at 1 µM is 94% at CDK1/cyclin B; 98.2% at CDK2/Cyclin A1; 99.3% at EPHA4; 89.4% on FGR; 101% at IKKb/IKBKB; 95.4% at MSK2/RPS6KA4. Further, the remaining activity at 1 µM worked out at 104% at MYLK4 and 105% at TESK1.
